We go through one compound from patent US20110183926A1, “TREATMENT USING CONTINUOUS LOW DOSE APPLICATION OF SUGAR ANALOGS” (UNIVERSITY OF MIAMI, priority 2008, published 2011).

The assay relates to MDA-MB-435 cells. Description: orthotopic human breast cancer mouse model, continuous 2-DG by intraperitoneal osmotic pump. The class given is in vivo. The following applies: 19 μg/ml/hr or 30 mg/kg per 24 hrs continuously for 4 weeks; intraperitoneal osmotic pump filled with 328 mg/ml; MDA-MB-435 orthotopic in CD-1 nude mice. On the procedure: 2×10^6 MDA-MB-435 cells were injected orthotopically to CD-1 nude mice. After two weeks, osmotic pumps (Model 1004, Alzet Inc.) were inserted into the peritoneal cavity under general anesthesia. In one group of animals (n=9), the pumps contained 0.9% NaCl, while in the other group (n=5), the pumps were filled with 2-DG at a concentration of 328 mg/ml. Mice were weighed, and tumor measurements were taken by caliper three times weekly. Tumor measurements were converted to tumor volume by using the formula W×L^2/2. Mice were killed when either W or L exceeded 15 mm. At sacrifice, mice were weighed, and tumors were excised and checked histologically for verification of tumor growth.

On to `O=CC[C@@H](O)[C@H](O)[C@H](O)CO` [2-DG, 2-deoxy-D-glucose], for which the “tumor burden (tumor volume by caliper, W×L^2/2)” value is recorded as “effectively reduces tumor burden”.
